These results are taken from ChEMBL document CHEMBL1201862, “PubChem BioAssay data set” (2004).

Holding throughout (test): NCI tumour cell line growth inhibition, 48 h
Experiment [1] has as its system NCI-H460.
Experiment [2] concerns NCI-H23.
Experiment [3] relates to OVCAR-3.
Experiment [4] has as its system SNB-75.
Experiment [5] concerns Hs-578T.
The subject of experiment [6] is KM12.
In experiment [7] the test system is HCT-116.
The subject of experiment [8] is SK-OV-3.
The test system of experiment [9] is RXF 393.
In experiment [10] the test system is U-251.
In experiment [11] the test system is HOP-62.
The test system of experiment [12] is SNB-19.
Experiment [13] concerns Malme-3M.
Experiment [14] relates to TK-10.
For experiment [15], the system named is A498.
The test system of experiment [16] is DU-145.
For experiment [17], the system named is T47D.
Experiment [18] concerns BT-549.
The subject of experiment [19] is MDA-N.

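96-well plates; 48 h exposure; 5 concentrations. Endpoints by linear interpolation between flanking doses. Not reached: highest tested concentration assigned. At the GI50, growth is halved.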 Calls of active or inactive are those of the source. Cut-off read from the data, not from the text of the source: active = GI50 up to about 1.1 µM and inactive = higher.

As to `O=C1NCC2(CCN(CC3COc4ccccc4O3)CC2)N1c1ccccc1` (configuration not stated), the GI50 in [1], in experiment [2], in [3], in experiment [4], in experiment [5] and in [6] was > 100 µM (inactive) each time. In addition, the GI50 in [7], in [8], in [9], in experiment [10], in experiment [11] and in experiment [12] was > 100 µM (inactive) each time. Further, the GI50 in [13], in experiment [14], in [15], in experiment [16] and in [17] was > 100 µM (inactive) each time.

As for `Cc1ccc(-n2nnc3c(NNc4ccccc4)n[nH]c(=O)c32)cc1`, the GI50 in [18] is 73.3 µM (inactive); in experiment [1] it was 30.8 µM (inactive); in experiment [2], 72.1 µM (inactive); in experiment [4], 36.6 µM (inactive); in experiment [6], > 100 µM (inactive); in experiment [7] it was 82.8 µM (inactive). Further, the GI50 in [10] was 52.1 µM (inactive); in experiment [11], 66.2 µM (inactive); in experiment [12] it was 59 µM (inactive); in experiment [13], > 100 µM (inactive); in experiment [14], 28.1 µM (inactive); in [16], > 100 µM (inactive).

Regarding `CN(C)/N=N/c1ccc(S(N)(=O)=O)cc1`, the GI50 in [1] is > 100 µM (inactive); in experiment [2], > 100 µM (inactive); in experiment [3], > 100 µM (inactive); in [4], 92.9 µM (inactive); in experiment [6], > 100 µM (inactive); in experiment [7] it was > 100 µM (inactive). The GI50 in experiment [8], in [10], in [11], in [12], in experiment [13] and in experiment [14] was > 100 µM (inactive) in each case. Moreover, the GI50 in [15] was > 100 µM (inactive).

For `C[n+]1c(-c2ccc(/C=N/NC(=S)N/N=C/c3ccc(-c4cn5ccsc5[n+]4C)cc3)cc2)cn2ccsc21`, the GI50 in experiment [1], in experiment [4], in [5], in experiment [6], in [7] and in experiment [8] was > 100 µM (inactive) each time. The GI50 in experiment [10] was > 100 µM (inactive); in experiment [11], > 100 µM (inactive); in experiment [12] it was > 100 µM (inactive); in experiment [19], 45.2 µM (inactive); in experiment [14], > 100 µM (inactive); in experiment [17], > 100 µM (inactive).

In the case of `COc1ccc2c(c1)c1c3c(ccc4ncn2c43)N(CCO)CCN=1`, the GI50 in experiment [1] was 0.132 µM (active); in [2], 0.191 µM (active); in experiment [3], 0.213 µM (active); in [4] it was 0.306 µM (active); in experiment [5], 0.274 µM (active); in experiment [6], 0.26 µM (active). Moreover, the GI50 in experiment [7] is 0.0512 µM (active); in experiment [8] it was 0.305 µM (active); in experiment [9], 0.211 µM (active); in experiment [10] it was 0.254 µM (active); in [11], 0.132 µM (active); in [12], 0.234 µM (active). In addition, the GI50 was 0.214 µM (active) in experiment [19]; 0.187 µM (active) in experiment [13]; 0.389 µM (active) in experiment [14]; 0.215 µM (active) in [15]; 0.282 µM (active) in experiment [16]; 0.263 µM (active) in experiment [17].

As for `O=C1CN(c2cccc(C(F)(F)F)c2)C(=O)CN1NCNN1CC(=O)N(c2cccc(C(F)(F)F)c2)CC1=O`, the GI50 is > 100 µM (inactive) in [1]; > 100 µM (inactive) in [4]; > 100 µM (inactive) in experiment [5]; 36 µM (inactive) in experiment [6]; > 100 µM (inactive) in experiment [7]; > 100 µM (inactive) in [8]. The GI50 in experiment [10], in experiment [11], in experiment [12], in experiment [19], in [14] and in [17] was > 100 µM (inactive) each time.

With `CN(C)c1ccc2c(NCCCCCCNc3ccnc4cc(N(C)C)ccc34)ccnc2c1`, the GI50 in [1] was 6.75 µM (inactive); in experiment [2] it was 10.1 µM (inactive); in experiment [3], 13.7 µM (inactive); in [6] it was 8.26 µM (inactive); in experiment [7] it was 6.55 µM (inactive); in experiment [8] it was > 100 µM (inactive). Besides, the GI50 in experiment [9] was 16 µM (inactive); in experiment [10] it was 5.32 µM (inactive); in [11] it was 19.2 µM (inactive); in [12], 0.605 µM (active); in experiment [13], 2.85 µM (inactive); in experiment [14], 12.5 µM (inactive). Moreover, the GI50 in [15] was 35.1 µM (inactive).

Regarding `CC1(C)CSCC(C)(C)C(=N/N)/C1=N\N`, the GI50 in experiment [1], in [2], in experiment [3], in experiment [4], in experiment [6] and in experiment [7] was > 100 µM (inactive) in each case. The GI50 in experiment [8], in experiment [10], in experiment [11], in experiment [12], in experiment [19] and in experiment [13] was > 100 µM (inactive) throughout. Besides, the GI50 in experiment [14], in experiment [15], in experiment [16] and in [17] was > 100 µM (inactive) each time.

`NC(=O)CC(Nc1ncc2c(n1)-c1ccccc1OC2)C(=O)O` (configuration not stated): the GI50 in experiment [1] was > 100 µM (inactive); in [2] it was > 100 µM (inactive); in experiment [3] it was > 100 µM (inactive); in experiment [4] it was 67.9 µM (inactive); in [5] it was > 100 µM (inactive); in [6], > 100 µM (inactive). Further, the GI50 in experiment [7], in experiment [8], in experiment [9], in experiment [10], in [11] and in [12] was > 100 µM (inactive) each time. Also, the GI50 was > 100 µM (inactive) in [19], 92 µM (inactive) in [13], > 100 µM (inactive) in experiment [14] and > 100 µM (inactive) in experiment [16].

For `C[C@H]1ON2CCC[C@@H]2[C@@H]1C(=O)N1C2CC3CCC2(CS1(=O)=O)C3(C)C` (some centres not stated), the GI50 in experiment [1], in experiment [2], in experiment [3], in experiment [4], in [5] and in [6] was > 100 µM (inactive) each time. In addition, the GI50 in [7], in experiment [8], in experiment [9], in [10], in [11] and in experiment [12] was > 100 µM (inactive) each time. Further, the GI50 in experiment [19], in [13], in experiment [14], in [15], in experiment [16] and in experiment [17] was > 100 µM (inactive) each time.
